As usually defined, the IC50 is the point on the concentration scale where inhibition reaches its midpoint. Usually Kd stands for the equilibrium constant for the complex coming apart.

The structures appear in SMILES notation. Numbered stars: 1 amine (or outer) side, 2 acyl side, 3 side chain; on linkers, the order of the positions; unused ones are H or OH. Bridge positions count the residues as written; N and C are the ends. Peptide text beside a SMILES is read from it. CH2CH2 = C(C[*:2])[*:1]

One test concerns the target Protein smoothened (Homo sapiens, UniProt Q99835, D473H). Kind of test: Antagonist activity at SMO D473H mutant (unknown origin) expressed in mouse TM3 cells coexpressing Gli-luc reporter gene assessed as inhibition of Hh-Ag1.5 induced Gli luciferase activity incubated for 48 hrs by luminescence assay. The test is classed as cell-based. Background: Reporter assays use an easily measured gene product as a stand-in for the process of interest.

A short description of test [1]: Inhibition of hedgehog signalling in Shh-stimulated mouse NIH3T3 cells coexpressing firefly luciferase gene under control of Gli-promoter and renilla gene under control of constitutive promoter assessed as inhibition of Shh-N induced luciferase expression by dual luciferase reporter assay. Type of test: cell-based.
The next test deals with Sonic hedgehog protein (Homo sapiens, UniProt Q15465). Description: Binding affinity to Shh (unknown origin) assessed as dissociation constant.
The nature of test [2]: Inhibition of hedgehog signalling pathway in mouse Shh Light II cells expressing Gli-luciferase reporter gene assessed as inhibition of SHHN-induced luciferase activity. The test is classed as cell-based.
Test [3] in a line: Inhibition of hedgehog signalling pathway in mouse NIH3T3 cells by Gli-Bla reporter assay. The test is classed as cell-based.

Sequence of Sonic hedgehog protein (Q15465 24-197 limits assumed): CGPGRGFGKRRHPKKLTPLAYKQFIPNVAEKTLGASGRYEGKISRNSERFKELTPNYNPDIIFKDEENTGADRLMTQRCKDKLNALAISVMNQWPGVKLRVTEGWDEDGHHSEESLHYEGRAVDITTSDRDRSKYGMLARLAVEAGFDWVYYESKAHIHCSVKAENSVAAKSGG
Sequence of Protein smoothened (Q99835 28-787 D473H limits assumed): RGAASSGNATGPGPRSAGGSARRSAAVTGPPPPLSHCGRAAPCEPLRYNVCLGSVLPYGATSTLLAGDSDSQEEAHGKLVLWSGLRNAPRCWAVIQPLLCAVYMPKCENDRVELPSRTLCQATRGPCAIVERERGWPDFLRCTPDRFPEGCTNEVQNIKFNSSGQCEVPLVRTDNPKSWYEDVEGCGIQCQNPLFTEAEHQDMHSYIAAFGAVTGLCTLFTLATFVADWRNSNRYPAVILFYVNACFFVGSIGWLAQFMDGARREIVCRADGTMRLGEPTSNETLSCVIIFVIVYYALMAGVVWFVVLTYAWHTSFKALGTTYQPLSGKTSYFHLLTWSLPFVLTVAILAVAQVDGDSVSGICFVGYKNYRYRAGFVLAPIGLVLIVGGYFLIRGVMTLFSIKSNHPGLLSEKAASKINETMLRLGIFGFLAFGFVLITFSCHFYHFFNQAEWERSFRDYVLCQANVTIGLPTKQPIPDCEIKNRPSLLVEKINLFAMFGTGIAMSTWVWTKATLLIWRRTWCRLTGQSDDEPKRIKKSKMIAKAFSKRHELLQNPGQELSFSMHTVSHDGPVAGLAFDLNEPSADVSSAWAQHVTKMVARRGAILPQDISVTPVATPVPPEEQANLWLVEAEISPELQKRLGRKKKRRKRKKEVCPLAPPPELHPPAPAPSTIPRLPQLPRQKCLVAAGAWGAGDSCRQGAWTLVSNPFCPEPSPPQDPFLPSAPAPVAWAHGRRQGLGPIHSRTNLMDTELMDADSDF

As to `CC1C(=O)N(c2ccc(Cl)cc2)C(=O)N1Cc1ccccc1` (stereo not given), the IC50 on Protein smoothened came out at 50 nM.
As to `CSCC[C@@H]1NC(=O)[C@H](C)NC(=O)[C@H](CCC(=O)O)NC(=O)[C@@H](NC(=O)[C@H](Cc2c[nH]c3ccccc23)NC(=O)[C@H](CO)NC(=O)[C@H](CC(C)C)NC(=O)[C@@H](NC(C)=O)[C@@H](C)O)Cc2ccc(cc2)OCCSC[C@@H](C(=O)N[C@H](C(=O)N[C@@H](CC(=O)O)C(=O)O)[C@@H](C)O)NC(=O)[C@H](CCSC)NC(=O)[C@H](CC(=O)O)NC1=O` (Ac-TLSWYEAMDMCTD-OH; linker 5-11 via CH2CH2), in test [1], the IC50 was 250 nM. In addition, the Kd at Sonic hedgehog protein amounted to 170 nM.
For `CCC(C)n1ncn(-c2ccc(N3CCN(c4ccc(OCC5COC(Cn6cncn6)(c6ccc(Cl)cc6Cl)O5)cc4)CC3)cc2)c1=O` (stereo not given) [ITRACONAZOLE], the IC50 in test [2] was 500 nM.
Consider `CS(=O)(=O)c1ccc(C(=O)Nc2ccc(Cl)c(-c3ccccn3)c2)c(Cl)c1` [VISMODEGIB], for which 7 nM corresponded to half-maximal inhibition in test [3] (IC50).

For the origin of these results see ChEMBL document CHEMBL5247632, “Current approaches and strategies to identify Hedgehog signaling pathway inhibitors for cancer therapy” (Eur J Med Chem, 2022).
